Assay results published in ChEMBL document CHEMBL1201862, “PubChem BioAssay data set” (2004).
Active and inactive are the calls of the source.

What was measured:
Paired box protein Pax-8 = Paired box protein Pax-8 (Homo sapiens, UniProt Q06710); test: PAX8 transcriptional activity inhibition in RMG-I – RMG-I cells, luciferase, cherry-pick, dose response (AID 687027); type: functional, cell-based;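 note: luciferase reporter driven by Pax8 target thyroperoxidase promoter measured by SteadyGlo luminescence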
Chain of Paired box protein Pax-8 (Q06710 whole entry): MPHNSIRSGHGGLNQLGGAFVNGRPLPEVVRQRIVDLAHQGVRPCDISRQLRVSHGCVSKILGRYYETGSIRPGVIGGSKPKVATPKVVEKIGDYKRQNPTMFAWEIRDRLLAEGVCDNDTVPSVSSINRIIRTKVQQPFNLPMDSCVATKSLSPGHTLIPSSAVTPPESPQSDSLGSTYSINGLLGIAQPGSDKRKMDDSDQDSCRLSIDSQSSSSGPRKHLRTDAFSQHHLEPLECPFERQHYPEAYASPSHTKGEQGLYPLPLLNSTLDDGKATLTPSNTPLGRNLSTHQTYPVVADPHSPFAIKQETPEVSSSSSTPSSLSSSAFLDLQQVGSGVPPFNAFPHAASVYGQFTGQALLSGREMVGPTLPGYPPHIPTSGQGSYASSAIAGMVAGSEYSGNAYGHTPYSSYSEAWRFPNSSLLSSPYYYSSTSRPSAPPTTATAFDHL

[1] = biological target: T1, Heat shock factor protein 1 (Mus musculus, UniProt P38532); test: enhancement of HSF1-driven luciferase signal – cell-based, NIH3T3, luminescence, dose retest, confirmation (AID 435004); type: functional;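 note: stress induced by proteasome inhibitor MG132 added 30 min after compound; luciferase reporter driven by HSF1 response element in NIH3T3 cells; actives raise luminescence as potentiators of the MG132 stress response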
T1 sequence (P38532 whole entry): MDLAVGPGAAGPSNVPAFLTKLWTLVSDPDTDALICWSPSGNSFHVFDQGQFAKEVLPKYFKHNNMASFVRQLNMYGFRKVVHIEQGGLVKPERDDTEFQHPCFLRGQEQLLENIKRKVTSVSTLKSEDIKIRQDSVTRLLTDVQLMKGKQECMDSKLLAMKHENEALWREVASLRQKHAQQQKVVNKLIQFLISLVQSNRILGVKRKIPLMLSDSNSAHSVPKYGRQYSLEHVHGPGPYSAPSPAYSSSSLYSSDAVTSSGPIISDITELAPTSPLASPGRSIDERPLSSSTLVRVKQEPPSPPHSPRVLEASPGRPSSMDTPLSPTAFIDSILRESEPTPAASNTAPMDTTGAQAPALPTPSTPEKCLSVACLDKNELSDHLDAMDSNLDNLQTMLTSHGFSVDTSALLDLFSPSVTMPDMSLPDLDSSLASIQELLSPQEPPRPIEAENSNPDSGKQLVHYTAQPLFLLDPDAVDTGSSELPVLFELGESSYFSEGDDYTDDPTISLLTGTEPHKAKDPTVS

X-box-binding protein 1 = X-box-binding protein 1 (Homo sapiens, UniProt P17861); type: functional, Cricetulus griseus;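 note: confirmatory dose-response counter-screen serving a CHOP assay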
Chain of X-box-binding protein 1 (P17861 whole entry): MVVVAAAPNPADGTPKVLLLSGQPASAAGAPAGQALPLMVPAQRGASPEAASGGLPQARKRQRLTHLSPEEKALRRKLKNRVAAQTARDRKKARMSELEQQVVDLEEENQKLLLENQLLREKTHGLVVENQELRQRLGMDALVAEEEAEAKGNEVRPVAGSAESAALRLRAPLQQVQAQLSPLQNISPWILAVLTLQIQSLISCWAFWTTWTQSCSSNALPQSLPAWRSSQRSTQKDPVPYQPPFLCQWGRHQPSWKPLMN

Phosphomannomutase 2 = Phosphomannomutase 2 (Homo sapiens, UniProt O15305); test: Counter screen SAR assay for PMM2 inhibitors via a fluorescence intensity assay. [Related pubchem assays (depositor defined):AID1545, AID1574]
Chain of Phosphomannomutase 2 (O15305 whole entry): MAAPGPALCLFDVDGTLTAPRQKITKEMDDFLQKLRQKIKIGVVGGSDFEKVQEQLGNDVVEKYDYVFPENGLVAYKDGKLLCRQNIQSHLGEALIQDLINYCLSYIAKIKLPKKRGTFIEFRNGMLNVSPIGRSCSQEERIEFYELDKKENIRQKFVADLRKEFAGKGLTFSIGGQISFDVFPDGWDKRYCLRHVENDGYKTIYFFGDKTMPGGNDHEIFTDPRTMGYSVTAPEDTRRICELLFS

INS1 = test: INS-1E survival protection against cytokine death – cell-based, luminescence, retest, dose response (AID 449756); type: functional; conditions: Rattus norvegicus;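 note: cell death triggered by IL-1 beta plus TNF-alpha plus IFN-gamma mixture; protective hits raise ATP signal compared with cytokine alone wells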
[2] = biological target: T2, Short transient receptor potential channel 4 (Mus musculus, UniProt Q9QUQ5); test: block of DAMGO-driven TRPC4 calcium entry – cell-based, HEK293 TRPC4/mu-opioid, Fluo-4 calcium, dose response (AID 434942); type: functional;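 note: potency of inhibitors blocking the TRPC4 calcium response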
T2 sequence (Q9QUQ5 whole entry): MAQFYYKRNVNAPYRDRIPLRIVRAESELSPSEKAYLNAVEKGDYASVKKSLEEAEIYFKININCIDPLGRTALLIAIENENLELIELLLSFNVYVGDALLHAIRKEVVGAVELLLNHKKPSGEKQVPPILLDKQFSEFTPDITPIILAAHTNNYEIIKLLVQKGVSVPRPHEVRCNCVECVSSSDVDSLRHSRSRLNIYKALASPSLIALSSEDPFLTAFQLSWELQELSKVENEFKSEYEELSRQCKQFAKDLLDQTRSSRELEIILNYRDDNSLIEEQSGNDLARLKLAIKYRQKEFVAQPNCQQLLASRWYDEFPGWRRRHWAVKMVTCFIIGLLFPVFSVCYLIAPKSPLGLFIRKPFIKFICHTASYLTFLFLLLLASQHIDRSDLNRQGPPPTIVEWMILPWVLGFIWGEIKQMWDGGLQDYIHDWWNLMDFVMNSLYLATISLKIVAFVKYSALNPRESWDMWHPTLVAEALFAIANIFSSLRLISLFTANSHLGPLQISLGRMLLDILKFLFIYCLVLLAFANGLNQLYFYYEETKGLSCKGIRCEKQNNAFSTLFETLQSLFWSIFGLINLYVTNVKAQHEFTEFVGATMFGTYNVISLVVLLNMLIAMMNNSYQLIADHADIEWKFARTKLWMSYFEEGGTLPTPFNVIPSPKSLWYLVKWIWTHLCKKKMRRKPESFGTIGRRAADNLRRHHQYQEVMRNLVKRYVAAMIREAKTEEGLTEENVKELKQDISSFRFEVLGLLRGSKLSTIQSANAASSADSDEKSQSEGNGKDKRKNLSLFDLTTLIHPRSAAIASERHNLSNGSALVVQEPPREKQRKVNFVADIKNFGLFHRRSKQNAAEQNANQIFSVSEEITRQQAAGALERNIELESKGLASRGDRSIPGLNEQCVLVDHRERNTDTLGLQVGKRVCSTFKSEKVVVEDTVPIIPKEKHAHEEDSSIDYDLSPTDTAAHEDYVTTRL

[3] = biological target: T3, Delta-type opioid receptor (Homo sapiens, UniProt P41143); test: HTS Image-Based Screen for Agonists of the DOR Receptor. [Related pubchem assays (depositor defined):AID1777, AID1786, AID2133]; type: functional
T3 sequence (P41143 whole entry): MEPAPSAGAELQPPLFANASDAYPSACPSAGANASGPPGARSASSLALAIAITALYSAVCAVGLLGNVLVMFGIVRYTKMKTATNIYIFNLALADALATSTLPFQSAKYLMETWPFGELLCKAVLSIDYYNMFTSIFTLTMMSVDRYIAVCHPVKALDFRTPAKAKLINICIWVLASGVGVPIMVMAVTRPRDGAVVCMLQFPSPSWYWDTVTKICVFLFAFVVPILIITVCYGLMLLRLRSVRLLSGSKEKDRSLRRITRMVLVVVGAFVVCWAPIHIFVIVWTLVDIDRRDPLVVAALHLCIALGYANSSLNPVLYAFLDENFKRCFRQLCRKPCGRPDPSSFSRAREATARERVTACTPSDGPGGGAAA

[4] = biological target: T4, Kappa-type opioid receptor (Homo sapiens, UniProt P41145); type: functional
T4 sequence (P41145 whole entry): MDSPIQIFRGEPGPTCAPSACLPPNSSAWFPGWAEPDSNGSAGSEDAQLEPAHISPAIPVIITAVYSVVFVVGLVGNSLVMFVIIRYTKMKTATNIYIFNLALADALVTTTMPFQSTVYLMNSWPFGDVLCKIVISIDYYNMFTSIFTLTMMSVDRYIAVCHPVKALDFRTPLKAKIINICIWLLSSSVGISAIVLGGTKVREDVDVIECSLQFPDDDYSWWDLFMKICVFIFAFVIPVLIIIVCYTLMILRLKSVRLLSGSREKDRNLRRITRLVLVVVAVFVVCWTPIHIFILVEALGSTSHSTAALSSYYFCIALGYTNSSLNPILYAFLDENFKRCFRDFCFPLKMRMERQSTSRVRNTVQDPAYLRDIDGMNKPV

Beta-galactosidase = Beta-galactosidase (Escherichia coli, UniProt Q8VNN2); type: functional
[5] = biological target: T4, Kappa-type opioid receptor; type: functional; remark: listed apart in the source
Mu-type opioid receptor = Mu-type opioid receptor (Homo sapiens, UniProt P35372); test: HTS Image-Based Screen for Agonists of the MOR Receptor. [Related pubchem assays (depositor defined):AID1777, AID1785, AID1786, AID2133]; type: functional;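 note: imaging of beta-arrestin GFP recruitment into spots after receptor activation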
Chain of Mu-type opioid receptor (P35372 whole entry): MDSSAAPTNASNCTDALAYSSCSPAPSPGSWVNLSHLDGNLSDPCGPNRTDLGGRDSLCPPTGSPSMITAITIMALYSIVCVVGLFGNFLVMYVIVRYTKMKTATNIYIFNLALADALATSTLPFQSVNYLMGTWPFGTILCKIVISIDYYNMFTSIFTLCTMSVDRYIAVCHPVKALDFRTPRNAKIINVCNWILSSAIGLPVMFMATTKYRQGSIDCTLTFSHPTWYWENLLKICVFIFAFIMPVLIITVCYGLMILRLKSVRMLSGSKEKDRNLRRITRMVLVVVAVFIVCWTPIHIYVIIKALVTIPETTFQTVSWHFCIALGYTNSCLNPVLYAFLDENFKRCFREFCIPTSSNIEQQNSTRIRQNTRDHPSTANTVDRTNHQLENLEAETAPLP

[6] = biological target: T3, Delta-type opioid receptor; test: HTS Image-Based Screen for Antagonists of the DOR Receptor. [Related pubchem assays (depositor defined):AID1777, AID1785, AID1786, AID2133]; type: functional
[7] = biological target: T5, Mannose-6-phosphate isomerase (Homo sapiens, UniProt P34949); test: MPI inhibition at elevated mannose 6-phosphate – biochemical, fluorescence intensity, high mannose 6-phosphate, primary screen (AID 1220)
T5 sequence (P34949 whole entry): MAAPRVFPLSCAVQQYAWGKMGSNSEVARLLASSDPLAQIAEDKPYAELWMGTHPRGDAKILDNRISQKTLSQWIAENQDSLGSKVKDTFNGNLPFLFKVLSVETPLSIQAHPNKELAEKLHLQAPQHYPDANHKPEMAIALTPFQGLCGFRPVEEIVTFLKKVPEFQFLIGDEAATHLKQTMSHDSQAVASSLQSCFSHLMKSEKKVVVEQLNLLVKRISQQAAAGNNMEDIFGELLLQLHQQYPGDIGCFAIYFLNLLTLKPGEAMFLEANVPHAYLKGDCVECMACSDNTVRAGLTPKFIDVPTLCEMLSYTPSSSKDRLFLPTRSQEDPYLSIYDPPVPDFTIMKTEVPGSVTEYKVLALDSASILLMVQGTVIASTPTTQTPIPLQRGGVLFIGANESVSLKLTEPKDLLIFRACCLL

SUMO-activating enzyme = SUMO-activating enzyme (Homo sapiens, UniProt Q9UBT2); test: blockers of UBC9-mediated SUMO conjugation – biochemical, AlphaScreen, SUMOylation inhibitor project, confirmation (AID 2018); type: functional
Chain of SUMO-activating enzyme (Q9UBE0 whole entry): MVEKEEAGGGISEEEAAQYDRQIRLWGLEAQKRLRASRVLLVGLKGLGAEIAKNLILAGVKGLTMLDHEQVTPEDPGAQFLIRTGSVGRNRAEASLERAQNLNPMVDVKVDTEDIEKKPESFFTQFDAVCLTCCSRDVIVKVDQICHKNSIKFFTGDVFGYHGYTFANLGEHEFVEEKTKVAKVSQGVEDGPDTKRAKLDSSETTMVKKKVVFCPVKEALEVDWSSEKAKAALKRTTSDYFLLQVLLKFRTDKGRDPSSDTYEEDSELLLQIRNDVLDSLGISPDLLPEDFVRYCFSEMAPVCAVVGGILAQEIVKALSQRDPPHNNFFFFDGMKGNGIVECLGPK
Chain of SUMO-activating enzyme (Q9UBT2 whole entry): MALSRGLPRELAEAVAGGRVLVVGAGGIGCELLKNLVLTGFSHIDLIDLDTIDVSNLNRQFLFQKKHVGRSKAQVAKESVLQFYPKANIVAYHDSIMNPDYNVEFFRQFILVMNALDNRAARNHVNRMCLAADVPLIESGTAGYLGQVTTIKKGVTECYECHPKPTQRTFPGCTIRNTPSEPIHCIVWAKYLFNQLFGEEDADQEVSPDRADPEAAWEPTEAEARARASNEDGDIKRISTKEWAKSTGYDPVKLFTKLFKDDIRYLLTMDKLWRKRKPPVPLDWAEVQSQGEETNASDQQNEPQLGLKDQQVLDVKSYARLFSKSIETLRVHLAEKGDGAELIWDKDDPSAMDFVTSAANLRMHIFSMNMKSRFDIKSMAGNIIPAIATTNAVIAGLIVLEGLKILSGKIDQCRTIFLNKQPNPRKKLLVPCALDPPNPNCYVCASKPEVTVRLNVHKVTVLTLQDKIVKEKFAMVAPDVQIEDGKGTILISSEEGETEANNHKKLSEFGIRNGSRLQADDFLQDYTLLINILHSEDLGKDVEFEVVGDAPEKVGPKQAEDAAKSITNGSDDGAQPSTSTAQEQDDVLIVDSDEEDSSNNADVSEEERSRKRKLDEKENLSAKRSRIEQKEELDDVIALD

CHO-K1 = test: Counterscreen for antagonists of the orexin 1 receptor (OX1R; HCRTR1): Homogeneous time resolved fluorescence (HTRF)-based cell-based dose response assay to identify antagonists of the parental CHO-K1 cell line. [Related pubchem assays (depositor defined):AID434989, AID435008, AID463079, AID485270, AID492963, AID492964, AID492965, AID493232, AID504699, AID504701]; type: functional; conditions: Cricetulus griseus;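 note: potency for inhibition of ATP-stimulated IP1 production as antagonists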
[8] = Trypanosoma cruzi growth suppression in host cells – NIH3T3 host cells, beta-gal luminescence, confirmation (AID 2044); type: functional, cell-based;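 note: intracellular parasites grown in NIH/3T3 mouse fibroblasts as host cells; luminescent beta-galactosidase reporter signal from transgenic T. cruzi replicating inside host cells; inhibitors lower the luminescence signal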
[9] = biological target: T6, Orexin/Hypocretin receptor type 1 (Homo sapiens, UniProt O43613); test: Fluorescence-based cell-based high throughput dose response assay for antagonists of the orexin 1 receptor (OX1R; HCRTR1). [Related pubchem assays (depositor defined):AID434989, AID435008, AID463079, AID485270, AID492963, AID492964, AID492965, AID493232, AID504717, AID504718]; type: functional
T6 sequence (O43613 whole entry): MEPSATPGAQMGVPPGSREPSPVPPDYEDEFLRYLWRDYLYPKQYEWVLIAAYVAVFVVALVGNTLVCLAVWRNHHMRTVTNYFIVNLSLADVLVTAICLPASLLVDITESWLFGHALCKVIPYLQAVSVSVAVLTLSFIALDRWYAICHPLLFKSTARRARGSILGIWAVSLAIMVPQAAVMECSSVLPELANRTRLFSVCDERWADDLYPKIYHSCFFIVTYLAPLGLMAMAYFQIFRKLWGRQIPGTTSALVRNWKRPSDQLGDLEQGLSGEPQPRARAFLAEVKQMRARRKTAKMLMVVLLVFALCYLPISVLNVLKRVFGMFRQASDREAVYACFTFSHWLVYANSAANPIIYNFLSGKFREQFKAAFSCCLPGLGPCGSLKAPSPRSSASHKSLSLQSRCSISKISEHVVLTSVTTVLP

Cytochrome P450 2D6 = Cytochrome P450 2D6 (Homo sapiens, UniProt P10635);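 note: CYP2D6 member of a cytochrome P450 panel assay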
Chain of Cytochrome P450 2D6 (P10635 whole entry): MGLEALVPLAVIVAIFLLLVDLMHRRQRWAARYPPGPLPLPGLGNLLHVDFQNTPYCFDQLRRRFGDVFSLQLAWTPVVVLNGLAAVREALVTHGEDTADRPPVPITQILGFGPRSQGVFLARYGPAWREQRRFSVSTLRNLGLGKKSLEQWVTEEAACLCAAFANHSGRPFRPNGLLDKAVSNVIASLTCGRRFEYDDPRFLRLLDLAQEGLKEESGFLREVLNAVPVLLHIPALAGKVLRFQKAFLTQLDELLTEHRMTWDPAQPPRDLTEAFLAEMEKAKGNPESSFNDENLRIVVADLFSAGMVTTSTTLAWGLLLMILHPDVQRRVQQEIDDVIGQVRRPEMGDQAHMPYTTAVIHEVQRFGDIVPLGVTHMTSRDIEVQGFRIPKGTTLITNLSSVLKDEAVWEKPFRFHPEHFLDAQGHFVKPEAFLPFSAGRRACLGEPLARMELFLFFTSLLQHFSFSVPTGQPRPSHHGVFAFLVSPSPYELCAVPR

[10] = Counterscreen for antagonists of the orexin 1 receptor (OX1R; HCRTR1): Fluorescence-based cell-based high throughput dose response assay to identify antagonists of the parental CHO cell line. [Related pubchem assays (depositor defined):AID434989, AID435008, AID463079, AID485270, AID492963, AID492964, AID492965, AID493232, AID504699, AID504701]; type: functional
[11] = biological target: T6, Orexin/Hypocretin receptor type 1; test: Homogeneous Time Resolved Fluorescence (HTRF)-based cell-based high throughput dose response assay for antagonists of the orexin 1 receptor (OX1R; HCRTR1). [Related pubchem assays (depositor defined):AID434989, AID435008, AID463079, AID485270, AID492963, AID492964, AID492965, AID493232, AID504717, AID504718]; type: functional
Hexokinase-1 = Hexokinase-1 (Homo sapiens, UniProt P19367); test: HK1 enzyme activation by HKDC1 hits – biochemical, selectivity assay for HKDC1 activator project, dose response (AID 504762); type: functional
Chain of Hexokinase-1 (P19367 whole entry): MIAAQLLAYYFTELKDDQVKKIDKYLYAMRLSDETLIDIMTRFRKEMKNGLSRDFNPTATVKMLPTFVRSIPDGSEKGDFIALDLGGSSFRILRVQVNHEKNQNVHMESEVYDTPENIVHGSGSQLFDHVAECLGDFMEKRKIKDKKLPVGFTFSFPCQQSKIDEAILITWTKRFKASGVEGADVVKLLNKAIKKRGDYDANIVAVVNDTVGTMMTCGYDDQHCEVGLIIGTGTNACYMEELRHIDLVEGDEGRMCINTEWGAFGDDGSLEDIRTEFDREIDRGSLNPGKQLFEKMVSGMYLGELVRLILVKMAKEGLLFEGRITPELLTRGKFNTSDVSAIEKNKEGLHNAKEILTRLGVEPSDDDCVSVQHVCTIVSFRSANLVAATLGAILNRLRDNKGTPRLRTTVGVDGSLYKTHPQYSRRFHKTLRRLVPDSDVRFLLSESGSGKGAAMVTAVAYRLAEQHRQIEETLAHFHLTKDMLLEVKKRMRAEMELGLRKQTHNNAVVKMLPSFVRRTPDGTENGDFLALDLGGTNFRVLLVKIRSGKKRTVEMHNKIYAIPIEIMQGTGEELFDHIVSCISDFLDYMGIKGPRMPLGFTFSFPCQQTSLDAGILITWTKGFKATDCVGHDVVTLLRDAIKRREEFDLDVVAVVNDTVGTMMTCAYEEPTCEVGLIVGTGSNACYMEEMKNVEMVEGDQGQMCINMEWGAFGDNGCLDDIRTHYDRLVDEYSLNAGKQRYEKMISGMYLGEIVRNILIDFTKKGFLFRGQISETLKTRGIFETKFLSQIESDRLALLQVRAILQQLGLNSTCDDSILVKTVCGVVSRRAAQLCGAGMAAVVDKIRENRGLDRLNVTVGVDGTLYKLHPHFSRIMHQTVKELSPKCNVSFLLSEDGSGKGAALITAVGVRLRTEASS

Hexokinase HKDC1 = biological target: T7, Hexokinase HKDC1 (Homo sapiens, UniProt Q2TB90); test: activation of HKDC1 glucose phosphorylation – biochemical, W721R variant, dose response (AID 504730); type: functional
T7 sequence (Q2TB90 whole entry): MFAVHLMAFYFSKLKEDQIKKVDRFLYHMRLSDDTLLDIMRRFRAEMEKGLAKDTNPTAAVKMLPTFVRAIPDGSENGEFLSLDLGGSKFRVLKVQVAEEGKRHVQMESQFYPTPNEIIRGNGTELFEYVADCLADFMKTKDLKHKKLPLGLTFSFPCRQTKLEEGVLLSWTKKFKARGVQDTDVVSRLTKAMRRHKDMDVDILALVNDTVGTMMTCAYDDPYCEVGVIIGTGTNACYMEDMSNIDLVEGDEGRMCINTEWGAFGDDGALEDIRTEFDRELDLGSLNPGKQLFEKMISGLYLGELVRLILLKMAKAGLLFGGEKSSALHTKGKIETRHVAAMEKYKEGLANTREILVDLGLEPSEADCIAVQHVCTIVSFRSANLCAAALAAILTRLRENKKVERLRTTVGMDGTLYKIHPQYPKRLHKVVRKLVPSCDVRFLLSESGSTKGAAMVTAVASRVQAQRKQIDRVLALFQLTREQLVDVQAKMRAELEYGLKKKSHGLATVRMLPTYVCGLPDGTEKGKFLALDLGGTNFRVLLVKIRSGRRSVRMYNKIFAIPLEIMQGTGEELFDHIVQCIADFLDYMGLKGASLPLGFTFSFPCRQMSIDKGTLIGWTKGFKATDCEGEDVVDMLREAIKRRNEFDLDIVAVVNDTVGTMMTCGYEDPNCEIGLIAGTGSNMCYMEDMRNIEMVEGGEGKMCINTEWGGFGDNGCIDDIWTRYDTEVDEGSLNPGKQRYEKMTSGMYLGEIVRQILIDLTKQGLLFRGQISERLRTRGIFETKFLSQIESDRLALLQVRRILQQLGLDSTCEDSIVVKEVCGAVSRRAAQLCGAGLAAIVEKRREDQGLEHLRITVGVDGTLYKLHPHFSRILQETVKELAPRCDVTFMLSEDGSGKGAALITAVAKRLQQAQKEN

Nonstructural protein 1 = Nonstructural protein 1 (Influenza A virus, UniProt Q194T2); type: functional, Influenza A virus (A/California/07/2009(H1N1))
Chain of Nonstructural protein 1 (Q194T2 whole entry): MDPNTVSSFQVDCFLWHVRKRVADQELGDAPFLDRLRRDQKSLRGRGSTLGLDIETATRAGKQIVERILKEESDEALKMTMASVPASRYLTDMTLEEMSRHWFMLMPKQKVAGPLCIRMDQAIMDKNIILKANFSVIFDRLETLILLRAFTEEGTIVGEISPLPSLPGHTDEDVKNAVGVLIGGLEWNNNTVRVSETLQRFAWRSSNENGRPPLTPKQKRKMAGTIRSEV

CSc1nc(-c2ccccc2)nc(C(Cl)Cl)n1
AC50 (Paired box protein Pax-8): 2.26 µM (active)
EC50 [1]: 2.7 µM (active)
Absolute IC50 (XBP1) (X-box-binding protein 1): 10 µM
IC50 (Phosphomannomutase 2): > 100 µM (inactive)
AC50 (INS1): 3.69 µM (active)

CCc1cccc(OCC(=O)Nc2ccc(C(=O)O)cc2NC(=O)COc2cccc(CC)c2)c1
EC50 [2]: 11.9 µM (active)

COc1ccc(N2CCN(CCCNC(=O)C(=O)c3c(C)n(C)c4ccccc34)CC2)cc1
EC50 [3]: > 32 µM (inactive)
IC50 [4]: 6.16 µM
EC50 (Beta-galactosidase): > 31.5 µM (inactive)
IC50 [5]: 18.3 µM (active)
EC50 (Mu-type opioid receptor): > 32 µM (inactive)
IC50 [6]: > 32 µM (inactive)

CCCN1C2=NCCN2c2cc(C)c(C)cc21
EC50 [2]: 5.96 µM (active)

C/C(=N\NC(=O)CNc1cccc2ccccc12)c1ccccc1
IC50 [7]: > 50 µM (not active)
IC50 (SUMO-activating enzyme): > 100 µM (inactive)

NC(=S)N/N=C/c1ccccc1OCc1cccc(Cl)c1
IC50 (CHO-K1): > 66.2 µM (inactive)
EC50 [8]: 323 nM (active)
IC50 [9]: 7.74 µM (active)
AC50 (Cytochrome P450 2D6): inconclusive
IC50 [10]: > 49.7 µM (inactive)
IC50 [11]: 2.71 µM (active)

COc1ccc(-c2nc3c(c(=O)n(C)c(=O)n3C)n2CC2CC(c3ccccc3)=NO2)cc1OC (configuration not stated)
EC50 (Hexokinase-1): 35.1 µM (inactive)
EC50 (Hexokinase HKDC1): 33.4 µM (inactive)

O=C(NC(=S)NNC(=O)c1cnccn1)c1ccc(F)cc1
IC50 (Nonstructural protein 1): 2.95 µM (active)
EC50 (Hexokinase-1): > 80 µM (inactive)
AC50 (INS1): 0.889 µM (active)
EC50 (Hexokinase HKDC1): 14.5 µM (active)
